For 21 compounds, Ki results are on record in patent publication US7902201B2, “Isoxazolo-pyrazine derivatives” (Hoffmann-La Roche Inc., priority 2007, dated 2011).

Broadly, the Ki is the dissociation constant of the complex between target and ligand, obtained from inhibition or displacement. A high value points to a looser hold on the target.

The target in this test is T1, GABA A receptors containing the α5 subunit (α5β3γ2) (Homo sapiens, UniProt P18507+P31644).
T1 construct: expressed in transfected cells; host or cells: HEK293 (transiently transfected); membranes prepared from cell pellets
Kind of test: [3H]flumazenil competition binding assay, human GABA A receptor (hKi). The conditions noted are these: human receptor transiently transfected in HEK293 cells, means of two determinations. How it is done: The affinity of compounds at GABA A receptor subtypes was measured by competition for [3H]flumazenil (85 Ci/mmol; Roche) binding to HEK293 cells expressing rat (stably transfected) or human (transiently transfected) receptors of composition α1β3γ2, α2β3γ2, α3β3γ2 and α5β3γ2.
Cell pellets were suspended in Krebs-tris buffer (4.8 mM KCl, 1.2 mM CaCl2, 1.2 mM MgCl2, 120 mM NaCl, 15 mM Tris; pH 7.5; binding assay buffer), homogenized by polytron for ca. 20 sec on ice and centrifuged for 60 min at 4° C. (50000 g; Sorvall, rotor: SM24=20000 rpm). The cell pellets were resuspended in Krebs-tris buffer and homogenized by polytron for ca. 15 sec on ice. Protein was measured (Bradford method, Bio-Rad) and aliquots of 1 mL were prepared and stored at −80° C.
Radioligand binding assays were carried out in a volume of 200 μL (96-well plates) which contained 100 μL of cell membranes, [3H]flumazenil at a concentration of 1 nM for α1, α2, α3 subunits and 0.5 nM for α5 subunits and the test compound in the range of […]. Nonspecific binding was defined by 10^−5 M diazepam and typically represented less than 5% of the total binding. Assays were incubated to equilibrium for 1 hour at. 4° C. and harvested onto GF/C uni-filters (Packard) by filtration using a Packard harvester and washing with ice-cold wash buffer (50 mM Tris; pH 7.5). After drying, filter-retained radioactivity was detected by liquid scintillation counting. Ki values were calculated using Excel-Fit (Microsoft) and are the means of two determinations.
As for `Cc1onc(-c2ccccc2)c1COc1cnc(C(=O)NC(C)C)cn1` [Example 3, 5-(5-Methyl-3-phenyl-isoxazol-4-ylmethoxy)-pyrazine-2-carboxylic acid isopropylamide], the Ki turned out to be 1.2 nM.
In turn, `COC(=O)c1cnc(OCc2c(-c3ccccc3)noc2C)cn1` [Example 1, 5-(5-Methyl-3-phenyl-isoxazol-4-ylmethoxy)-pyrazine-2-carboxylic acid methyl ester] returned a Ki of 29 nM.
For the compound `C[C@H](CO)NC(=O)c1cnc(OCc2conc2-c2ccc(Cl)cc2)cn1` [Example 18, 5-[3-(4-Chloro-phenyl)-isoxazol-4-ylmethoxy]-pyrazine-2-carboxylic acid ((R)-2-hydroxy-1-methyl-ethyl)-amide], the Ki was 7.4 nM. Against the preceding compound, the Ki is about 3.9-fold lower.
In the case of `Cc1onc(-c2ccccc2)c1COc1cnc(C(=O)NCC2CC2)cn1` [Example 2, 5-(5-Methyl-3-phenyl-isoxazol-4-ylmethoxy)-pyrazine-2-carboxylic acid cyclopropylmethyl-amide] it was 3.1 nM; in that of `O=C(NCC1CC1)c1cnc(OCc2conc2-c2ccc(F)cc2)cn1` [Example 14, 5-[3-(4-Fluoro-phenyl)-isoxazol-4-ylmethoxy]-pyrazine-2-carboxylic acid cyclopropylmethyl-amide], 21 nM; in that of `CC(C)NC(=O)c1cnc(OCc2conc2-c2ccc(F)cc2)cn1` [Example 15, 5-[3-(4-Fluoro-phenyl)-isoxazol-4-ylmethoxy]-pyrazine-2-carboxylic acid isopropylamide], 11 nM.
In turn, `Cc1onc(-c2ccc(F)cn2)c1COc1cnc(C(=O)NC2CCOCC2)cn1` [Example 12, 5-[3-(5-Fluoro-pyridin-2-yl)-5-methyl-isoxazol-4-ylmethoxy]-pyrazine-2-carboxylic acid (tetrahydro-pyran-4-yl)-amide] displayed a Ki of 0.3 nM.
In the case of “5-[(5-Methyl-3-phenyl-isoxazol-4-ylmethyl)-amino]-pyrazine-2-carboxylic acid cyclopropylamide [Example 10]” it was 10.4 nM.
Next, `Cc1onc(-c2ccccc2)c1COc1cnc(C(=O)NC2CCC(F)(F)CC2)cn1` [Example 7, 5-(5-Methyl-3-phenyl-isoxazol-4-ylmethoxy)-pyrazine-2-carboxylic acid (4,4-difluoro-cyclohexyl)-amide]: 10.6 nM.
With `CC(C)NC(=O)c1cnc(OCc2conc2-c2ccc(Cl)cc2)cn1` [Example 16, 5-[3-(4-Chloro-phenyl)-isoxazol-4-ylmethoxy]-pyrazine-2-carboxylic acid isopropylamide], the Ki worked out at 11.6 nM.
On to “5-[(5-Methyl-3-phenyl-isoxazol-4-ylmethyl)-amino]-pyrazine-2-carboxylic acid (tetrahydro-pyran-4-yl)-amide [Example 11]”, for which the Ki came out at 12.1 nM.
Compound `O=C(NCC(F)(F)F)c1cnc(OCc2conc2-c2ccc(F)cc2)cn1` [Example 13, 5-[3-(4-Fluoro-phenyl)-isoxazol-4-ylmethoxy]-pyrazine-2-carboxylic acid (2,2,2-trifluoro-ethyl)-amide] registered a Ki of 24 nM.
In turn, `Cc1onc(-c2ccccc2)c1COc1cnc(C(=O)NC2CCOCC2)cn1` [Example 6, 5-(5-Methyl-3-phenyl-isoxazol-4-ylmethoxy)-pyrazine-2-carboxylic acid (tetrahydro-pyran-4-yl)-amide] yielded a Ki of 1.2 nM. Against the preceding compound, the Ki is about 20-fold lower.
In the case of `C[C@@H](CO)NC(=O)c1cnc(OCc2conc2-c2ccc(Cl)cc2)cn1` [Example 17, 5-[3-(4-Chloro-phenyl)-isoxazol-4-ylmethoxy]-pyrazine-2-carboxylic acid ((S)-2-hydroxy-1-methyl-ethyl)-amide] it was 32 nM; in that of `CC(C)NC(=O)c1cnc(OCc2conc2-c2ccccn2)cn1` [Example 20, 5-(3-Pyridin-2-yl-isoxazol-4-ylmethoxy)-pyrazine-2-carboxylic acid isopropylamide], 9.6 nM.
In the case of `Cc1onc(-c2ccccc2)c1COc1cnc(C(=O)NC2CC2)cn1` [Example 5, 5-(5-Methyl-3-phenyl-isoxazol-4-ylmethoxy)-pyrazine-2-carboxylic acid cyclopropylamide] it was 1.9 nM; in that of `Cc1onc(-c2ccccc2)c1COc1cnc(C(=O)NC(C)(C)C)cn1` [Example 4, 5-(5-Methyl-3-phenyl-isoxazol-4-ylmethoxy)-pyrazine-2-carboxylic acid tert-butylamide], 10.8 nM; in that of `O=C(NC1CCOCC1)c1cnc(OCc2conc2-c2ccccn2)cn1` [Example 19, 5-(3-Pyridin-2-yl-isoxazol-4-ylmethoxy)-pyrazine-2-carboxylic acid (tetrahydro-pyran-4-yl)-amide], 14.3 nM.
The compound `Cc1onc(-c2ccccc2)c1COc1cnc2ccccc2n1` [Example 8, 2-(5-Methyl-3-phenyl-isoxazol-4-ylmethoxy)-quinoxaline] returned a Ki of 7.4 nM.
In the case of `Cc1onc(-c2ccccc2)c1CNc1cnc(C(=O)NC(C)C)cn1` [Example 9, 5-[(5-Methyl-3-phenyl-isoxazol-4-ylmethyl)-amino]-pyrazine-2-carboxylic acid isopropylamide] it was 9.6 nM; in that of `O=C(NC1CC1)c1cnc(OCc2conc2-c2ccccn2)cn1` [Example 21, 5-(3-Pyridin-2-yl-isoxazol-4-ylmethoxy)-pyrazine-2-carboxylic acid cyclopropylamide], 13.7 nM.
